The target of this experiment is Estrogen receptor (Homo sapiens, UniProt Q92731+P03372).

Description: Inhibitory activity against Estrogen receptor by displacement of [3H]17-beta-estradiol in ER-rich cytosol from rabbit uterine tissue

Take `CCCC(C)C1C(c2ccc(O)cc2)=c2ccc3n2C1C=CC=3` (stereo unspecified): the IC50 is listed as 950 nM. This lies in the sub-micromolar range.

`CC(C)c1c(-c2ccc(O)cc2)c2ccc3cccc1n32` registered an IC50 of 8 nM.

For the compound `CCc1c(-c2ccccc2)c2ccc3c(O)ccc1n32`, the IC50 is recorded as 180 nM.

`CCCc1c(-c2ccc(O)cc2)c2ccc3cccc1n32` returned an IC50 of 5 nM. Against the preceding compound, the IC50 is about 36-fold lower.

With `Cc1c(-c2ccc(O)cc2)c2ccc3cccc1n32`, the IC50 was found to be 28 nM.

Consider `CCc1c(-c2ccc(O)cc2)c2ccc3ccc(CO)c1n32`, for which the IC50 was determined as 12 nM.

In the case of `CCc1c(-c2ccc(O)cc2)c2ccc3c(O)ccc1n32`, the IC50 was 0.9 nM.

Consider `CCc1c(-c2cccc(O)c2)c2ccc3cccc1n32`, for which the half-inhibitory concentration (IC50) is listed as 370 nM.

`CCc1c(-c2ccccc2)c2ccc3cc(O)cc1n32`: the IC50 worked out at 1300 nM.

For the compound `Oc1ccc(C2=c3ccc4n3C3C(=CC=4)CCCCC23)cc1` (stereo unspecified), the IC50 was determined as 25 nM.

`Oc1ccc(-c2cc3cccc4ccc2n43)cc1` had an IC50 of 700 nM.

For `CCc1c(-c2ccc(O)cc2)c2ccc3cc(O)cc1n32`, the IC50 came to 0.9 nM.

The compound `Oc1ccc(C2=c3ccc4n3C(C=CC=4)C2CCc2ccccc2)cc1` (stereo unspecified) showed an IC50 of 180 nM.

`CCCCC1C(c2ccc(O)cc2)=c2ccc3n2C1C=CC=3` (stereo unspecified) gave an IC50 of 200 nM.

`Oc1ccc(C2=c3ccc4n3C3C(=CC=4)CCCC23)cc1` (stereo unspecified): the IC50 was 30 nM.

Compound `CCc1c(-c2ccc(O)cc2)c2ccc3cccc1n32` returned an IC50 of 9.5 nM.

The IC50 is the concentration at which inhibition is half-maximal. Low values mean greater potency in that assay, high ones weaker potency in that assay.
